According to patent US20220169632A1, “METHODS AND MATERIALS FOR INCREASING OR MAINTAINING NICOTINAMIDE MONONUCLEOTIDE ADENYLYL TRANSFERASE-2 (NMNAT2) POLYPEPTIDE LEVELS” (University of Pittsburgh - Of the Commonwealth System of …, priority 2019, published 2022):

What follows are compounds tested on NMNAT2 (assay: NMNAT2-Hibit nano-luciferase activity in transfected U87MG cells, 5 μM, 48 hours). Settings: NMNAT2-Hibit luciferase plasmid, 48 hours (Table D).
Type: cell-based
Description: Selected compounds were tested in vitro. Briefly, U87MG cells were transfected with NMNAT2-Hibit luciferase plasmid. Cells were treated with test compound at 5 μM for 48 hours. Cells were then collected and assayed for nano-luciferase activity.

Row | Compound | D: compound efficacy for NMNAT2 activation; increase in NMNAT2 luciferase activity
1 | Cc1ccc(NC(=O)Cn2cc(C(=O)c3ccccc3)c3ccccc32)cc1 [BC181209] | + (“+” <20% increase in NMNAT2 luciferase activity.)
2 | O=C(Cn1cc(C(=O)C(F)(F)F)c2ccccc21)NCc1ccccc1 [BC181201] | +++ (“+++” >100% increase in NMNAT2 luciferase activity.)
3 | CCc1cccc2c(C(=O)C(=O)NCCc3ccccc3)cn(Cc3ccccc3)c12 [BC181228] | + (“+” <20% increase in NMNAT2 luciferase activity.)
4 | Cc1ccccc1Cn1cc(CCC(=O)NCc2ccco2)c2ccccc21 [BC181241] | + (“+” <20% increase in NMNAT2 luciferase activity.)
5 | O=C(Cn1cc(C(=O)C2=CC=CC2)c2ccccc21)NCc1ccccc1 [BC181204] | ++ (“++” >20% and <100% increase in NMNAT2 luciferase activity.)
6 | Cc1ccc(C)c(NC(=O)Cn2cc(C(=O)c3ccccc3)c3ccccc32)c1 [BC181211] | ++ (“++” >20% and <100% increase in NMNAT2 luciferase activity.)
7 | Cc1c(C)n(Cc2ccccc2)c2ccc(C(=O)NCc3ccco3)cc12 [BC181247] | +++ (“+++” >100% increase in NMNAT2 luciferase activity.)
8 | CCN(CC)C(=O)C(=O)c1cn(CC(=O)NCCc2ccccc2)c2ccccc12 [BC181227] | + (“+” <20% increase in NMNAT2 luciferase activity.)
9 | Cc1ccc(Cn2cc(CCCC(=O)NC(C)C)c3ccccc32)cc1 [BC181232] | + (“+” <20% increase in NMNAT2 luciferase activity.)
10 | O=C(Cn1cc(C(=O)c2ccccc2)c2ccccc21)NCc1ccc2c(c1)OCCCO2 [BC181257] | + (“+” <20% increase in NMNAT2 luciferase activity.)
11 | O=C(Cn1cc(C(=O)c2ccccc2)c2ccccc21)Nc1ccc(Br)cc1 [BC181215] | + (“+” <20% increase in NMNAT2 luciferase activity.)
12 | CC(=O)c1cn(CC(=O)NCc2ccc(C)cc2)c2ccccc12 [BC181267] | + (“+” <20% increase in NMNAT2 luciferase activity.)
13 | Cc1ccccc1Cn1cc(CCC(=O)NCC2=CC=CC2)c2ccccc21 [BC181242] | + (“+” <20% increase in NMNAT2 luciferase activity.)
14 | Cc1ccc(CNC(=O)c2ccc3c(c2)c(C)c(C)n3Cc2ccccc2)o1 [BC181248] | ++ (“++” >20% and <100% increase in NMNAT2 luciferase activity.)
15 | O=C(Cn1cc(C(=O)C2CC2)c2ccccc21)NCc1ccco1 [BC181202] | + (“+” <20% increase in NMNAT2 luciferase activity.)
16 | COCCNC(=O)CCCc1cn(Cc2ccc(C)cc2)c2ccccc12 [BC181234] | ++ (“++” >20% and <100% increase in NMNAT2 luciferase activity.)
17 | O=C(Cn1cc(C(=O)c2ccco2)c2ccccc21)NCc1ccccc1 [BC181223] | + (“+” <20% increase in NMNAT2 luciferase activity.)
18 | Cc1ccc(CNC(=O)Cn2cc(C(=O)c3ccncc3)c(=O)c3cc(C)ccc32)cc1 [BC181250] | + (“+” <20% increase in NMNAT2 luciferase activity.)
19 | CCCNC(=O)CCCc1cn(Cc2ccc(C)cc2)c2ccccc12 [BC181233] | + (“+” <20% increase in NMNAT2 luciferase activity.)
20 | O=C(Cn1cc(C(=O)c2ccncc2)c(=O)c2cc(Br)ccc21)NCc1ccccc1 [BC181256] | + (“+” <20% increase in NMNAT2 luciferase activity.)
21 | CCN(CC)C(=O)Cn1cc(C(=O)c2ccccc2)c2ccccc21 [BC181217] | + (“+” <20% increase in NMNAT2 luciferase activity.)

What follows are compounds tested on NMNAT2-V5 polypeptide (assay: NMNAT2-V5 polypeptide expression in transfected Beas2B cells (Western blot), dose dependent, 24 h). Settings: Beas2B cells transfected with NMNAT2-V5 plasmid, compound for 24 hours, read-out: A: compound efficacy (IC50) for NMNAT2 activation.
Type: cell-based
Description: FIG. 1. Beas2B cells were transfected with NMNAT2-V5 plasmid. 24 hours later, cells were treated with compounds in a dose dependent manner (0, 1, 5, and 25 μM) for additional 24 hours. Cells were then collected and assayed for NMNAT2-V5 protein expression.
Selected compounds were tested in vitro. Briefly, Beas2B cells were transfected with NMNAT2-V5 plasmid. 24 hours later, cells were treated with a test compound in a dose dependent manner for additional 24 hours. Cells were then collected and assayed for NMNAT2-V5 polypeptide expression. Results of the assay are shown in Table A. Western blots showing levels of NMNAT2-V5 polypeptide for selected compounds are shown in FIG. 1.

Row | Compound | IC50 [µM]
22 | N#Cc1nc(-c2ccc(COc3ccccc3)s2)sc1OCCc1ccc(ON)cc1 [BC18135] | ≥ 25
23 | O=C(CCc1nnc2n(Cc3ccccc3)c(=O)c3ccccc3n12)N1CCN(CCOc2ccc(Cl)cc2)CC1 [BC18120] | < 5
24 | O=C(CSC1=Nc2ccccc2C2=NC(CCC(=O)N3CCN(c4ccccc4)CC3)C(=O)C12)NCC1CCCO1 (centres unmarked) [BC18130] | 5 to 25
25 | CC(=O)Nc1ccc(NC(=O)c2ccccc2OCc2nc(-c3ccc(C)cc3)ns2)cc1 [BC18116] | ≥ 25
26 | Cc1cc(C)n(CC(=O)NCc2ccco2)c(=O)c1C#N [BC18128] | < 5
27 | COc1ccc(OCC(=O)Nc2ccc3c(c2)nc(CCNC(=O)c2cccs2)n3C)cc1 [BC18118] | ≥ 25
28 | Cc1n[nH]c(/C=C/c2ccc(N)cc2)c1S(=O)(=O)N1CCC(C(=O)N2CCN(Cc3ccc4c(c3)OCO4)CC2)CC1 [BC18123] | < 5
29 | CCn1cc(C(=O)NC(C)c2ccc3c(c2)OCCO3)c(=O)c2cc(S(=O)(=O)N3CCc4ccccc4C3)ccc21 (centres unmarked) [BC18131] | 5 to 25
30 | O=C(Cn1ccc2ccc(F)cc21)NCc1ccco1 [BC18126] | < 5
31 | COc1ccc(OC)c(CCNC(=O)C(Cc2ccccc2)N2Cc3ccccc3C2=O)c1 (centres unmarked) [BC18138] | 5 to 25
32 | CN(CCc1nsc(-c2ccc(C(=O)NCc3ccc4c(c3)OCO4)cc2)n1)C(=O)c1ccccc1 [BC18121] | ≥ 25
33 | O=C(COCc1cc(-c2cccs2)sn1)NCCN1CCC(Cc2ccccc2)CC1 [BC18136] | ≥ 25
34 | COc1ccc(OC)c(CCNC(=O)C(Cc2ccccc2)N2Cc3ccccc3C2=O)c1 (centres unmarked) [BC18133] | 5 to 25
35 | O=C(COc1nc2cc(C(=O)NCc3ccc(F)cc3)ccc2c(=O)n1CCOO)c1ccc(O)cc1 [BC18132] | < 5
36 | Cc1ccc2onc(CNC(=O)NCc3cccc(Cl)c3)c2c1 [BC18125] | < 5
37 | CC(=O)Nc1ccc(NC(=O)c2ccccc2OCc2nc(-c3ccc(C)cc3)ns2)cc1 [BC18137] | 5 to 25
38 | O=C(Cn1c(=O)[nH]c2ccccc2c1=O)NCc1ccncc1 [BC18122] | 5 to 25
39 | COc1cccc(NS(=O)(=O)c2ccc3[nH]cc(C(=O)NC(C)c4ccc5c(c4)OCCO5)c(=O)c3c2)c1 (centres unmarked) [BC18134] | ≥ 25
40 | O=C(COCc1cc(-c2cccs2)sn1)NCCN1CCC(Cc2ccccc2)CC1 [BC18115] | 5 to 25
41 | O=C(COc1ccc(F)cc1)N1CCN(Cc2cccc(-c3n[nH]c(-c4cccc(Cl)c4)n3)c2)CC1 [BC18124] | < 5
42 | O=C(Cn1ccc2ccc(F)cc21)NCc1ccccn1 [BC18127] | 5 to 25
43 | Cc1ccc2onc(CNC(=O)NCc3ccccn3)c2c1 [BC18129] | 5 to 25
44 | COc1ccc(OC)c(CCNC(=O)C(Cc2ccccc2)N2Cc3ccccc3C2)c1 (centres unmarked) [BC18117] | 5 to 25
